Among the data in patent US20140243335A1, “SUBSTITUTED HYDOXAMIC ACIDS AND USES THEREOF” (Millennium Pharmaceuticals, Inc., priority 2010, published 2014) are inhibition values, retold here.

The target of the assay is T1, purified human HDAC6 (Homo sapiens, UniProt Q9UBN7).
T1 construct: purchased BPS Bioscience 5006
T1 sequence (Q9UBN7 1-1215): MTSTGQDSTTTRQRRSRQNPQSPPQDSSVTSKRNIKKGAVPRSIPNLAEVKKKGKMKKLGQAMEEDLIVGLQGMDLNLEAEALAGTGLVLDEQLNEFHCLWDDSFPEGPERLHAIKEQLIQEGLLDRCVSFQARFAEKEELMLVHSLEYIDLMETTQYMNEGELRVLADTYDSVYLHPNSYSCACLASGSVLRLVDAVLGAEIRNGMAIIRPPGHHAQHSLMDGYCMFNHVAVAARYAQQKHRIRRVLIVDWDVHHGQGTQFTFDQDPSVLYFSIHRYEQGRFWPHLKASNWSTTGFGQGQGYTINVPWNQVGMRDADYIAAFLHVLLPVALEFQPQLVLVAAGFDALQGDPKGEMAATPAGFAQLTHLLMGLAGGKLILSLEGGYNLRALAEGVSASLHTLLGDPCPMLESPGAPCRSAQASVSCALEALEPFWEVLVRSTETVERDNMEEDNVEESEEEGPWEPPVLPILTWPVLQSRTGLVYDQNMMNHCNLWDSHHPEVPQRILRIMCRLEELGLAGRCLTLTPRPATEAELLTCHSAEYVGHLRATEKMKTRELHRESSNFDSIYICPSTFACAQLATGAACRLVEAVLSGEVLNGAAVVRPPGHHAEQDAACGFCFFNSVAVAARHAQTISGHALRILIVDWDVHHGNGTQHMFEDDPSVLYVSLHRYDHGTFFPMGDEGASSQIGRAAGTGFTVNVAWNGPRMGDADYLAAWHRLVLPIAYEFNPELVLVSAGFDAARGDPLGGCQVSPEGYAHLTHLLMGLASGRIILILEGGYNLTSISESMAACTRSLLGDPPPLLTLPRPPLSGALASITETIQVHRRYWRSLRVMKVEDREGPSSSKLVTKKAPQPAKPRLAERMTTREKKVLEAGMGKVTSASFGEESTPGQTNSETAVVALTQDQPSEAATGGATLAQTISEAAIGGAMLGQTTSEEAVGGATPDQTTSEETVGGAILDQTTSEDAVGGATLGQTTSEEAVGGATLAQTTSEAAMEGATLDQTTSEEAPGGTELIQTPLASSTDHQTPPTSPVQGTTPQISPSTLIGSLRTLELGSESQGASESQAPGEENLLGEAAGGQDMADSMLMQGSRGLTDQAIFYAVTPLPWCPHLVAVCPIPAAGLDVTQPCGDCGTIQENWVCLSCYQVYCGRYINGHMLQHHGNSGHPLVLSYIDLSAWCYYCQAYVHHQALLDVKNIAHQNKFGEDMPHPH
Nature of the assay: HDAC6 Enzyme Assay. It counts as biochemical. Conditions: HDAC6 inhibition at a compound concentration of 0.412 μM; read-out: Percent Inhibition at 0.412 μM. As to the method: To measure the inhibition of HDAC6 activity, purified human HDAC6 (BPS Bioscience; Cat. No. 5006) is incubated with substrate Ac-Arg-Gly-Lys(Ac)-AMC peptide (Bachem Biosciences; Cat. No. I-1925) for 1 hour at 30° C. in the presence of test compounds or vehicle DMSO control. The reaction is stopped with the HDAC inhibitor trichostatin A (Sigma; Cat. No. T8552) and the amount of Arg-Gly-Lys-AMC generated is quantitated by digestion with trypsin (Sigma; Cat. No. T1426) and subsequent measurement of the amount of AMC released using a fluorescent plate reader (Pherastar; BMG Technologies) set at Ex 340 nm and Em 460 nm. Concentration response curves are generated by calculating the fluorescence increase in test compound-treated samples relative to DMSO-treated controls, and enzyme inhibition (IC50) values are determined from those curves.
For `CC(C)C(C(=O)NC1CCCc2cc(C(=O)NO)ccc21)c1ccccc1` (centres unmarked) [Compound I-31, N-hydroxy-5-[(3-methyl-2-phenylbutanoyl)amino]-5,6,7,8-tetrahydronaphthalene-2-carboxamide], the inhibition at 0.412 µM was 17%.

On to `O=C(NO)c1ccc2c(c1)CCCC2NC(=O)c1sc2ccccc2c1Cl` (centres unmarked) [Compound I-32, 3-chloro-N-{6-[(hydroxyamino)carbonyl]-1,2,3,4-tetrahydronaphthalen-1-yl}-1-benzothiophene-2-carboxamide], for which the inhibition at 0.412 µM amounted to 69%.

Consider `COc1cccc2cc(C(=O)NC3CCCc4cc(C(=O)NO)ccc43)oc12` (centres unmarked) [Compound I-33, N-{6-[(hydroxyamino)carbonyl]-1,2,3,4-tetrahydronaphthalen-1-yl}-7-methoxy-1-benzofuran-2-carboxamide], for which the inhibition at 0.412 µM amounted to 62%.

`O=C(NO)c1ccc2c(c1)CCCC2NC(=O)c1ccc(-c2ccccc2)cc1` (centres unmarked) [Compound I-34, N-{6-[(hydroxyamino)carbonyl]-1,2,3,4-tetrahydronaphthalen-1-yl}biphenyl-4-carboxamide]: the inhibition at 0.412 µM is 2%.

Regarding `Cc1ccc(-c2cc(C(=O)NC3CCCc4cc(C(=O)NO)ccc43)[nH]n2)cc1` (centres unmarked) [Compound I-35, N-{6-[(hydroxyamino)carbonyl]-1,2,3,4-tetrahydronaphthalen-1-yl}-3-(4-methylphenyl)-1H-pyrazole-5-carboxamide], the inhibition at 0.412 µM was found to be 74%.

On to `COc1ccc2c(CC(=O)NC3CCCc4cc(C(=O)NO)ccc43)coc2c1` (centres unmarked) [Compound I-36, N-hydroxy-5-{[(6-methoxy-1-benzofuran-3-yl)acetyl]amino}-5,6,7,8-tetrahydronaphthalene-2-carboxamide], for which the inhibition at 0.412 µM came to 26%.

Turning to `Cc1oc(S(=O)(=O)N2CCCCC2)cc1C(=O)NC1CCCc2cc(C(=O)NO)ccc21` (centres unmarked) [Compound I-37, N-{6-[(hydroxyamino)carbonyl]-1,2,3,4-tetrahydronaphthalen-1-yl}-2-methyl-5-(piperidin-1-ylsulfonyl)-3-furamide], the inhibition at 0.412 µM came to 36%.

On to `Cc1onc(-c2ccccc2Cl)c1C(=O)NC1CCCc2cc(C(=O)NO)ccc21` (centres unmarked) [Compound I-38, 3-(2-chlorophenyl)-N-{6-[(hydroxyamino)carbonyl]-1,2,3,4-tetrahydronaphthalen-1-yl}-5-methylisoxazole-4-carboxamide], for which the inhibition at 0.412 µM is 18%.

`Cc1ccc2[nH]c(C(=O)NC3CCCc4cc(C(=O)NO)ccc43)cc2c1` (centres unmarked) [Compound I-39, N-{6-[(hydroxyamino)carbonyl]-1,2,3,4-tetrahydronaphthalen-1-yl}-5-methyl-1H-indole-2-carboxamide]: the inhibition at 0.412 µM stood at 60%.

In the case of `O=C(NO)c1ccc2c(c1)CCCC2NC(=O)c1cc2cc(Cl)ccc2o1` (centres unmarked) [Compound I-40, 5-chloro-N-{6-[(hydroxyamino)carbonyl]-1,2,3,4-tetrahydronaphthalen-1-yl}-1-benzofuran-2-carboxamide], the inhibition at 0.412 µM was determined as 48%.

As to `COc1ccc(C(C(=O)NC2CCCc3cc(C(=O)NO)ccc32)c2ccccc2)cc1` (centres unmarked) [Compound I-41, N-hydroxy-5-{[(4-methoxyphenyl)(phenyl)acetyl]amino}-5,6,7,8-tetrahydronaphthalene-2-carboxamide], the inhibition at 0.412 µM stood at 23%.

With `O=C(NO)c1ccc2c(c1)CCCC2NC(=O)c1cc(-c2ccc(F)cc2)n[nH]1` (centres unmarked) [Compound I-43, 3-(4-fluorophenyl)-N-{6-[(hydroxyamino)carbonyl]-1,2,3,4-tetrahydronaphthalen-1-yl}-1H-pyrazole-5-carboxamide], the inhibition at 0.412 µM turned out to be 71%.

With `O=C(NO)c1ccc2c(c1)CCCC2NC(=O)c1cc2ccccc2o1` (centres unmarked) [Compound I-45, N-{6-[(hydroxyamino)carbonyl]-1,2,3,4-tetrahydronaphthalen-1-yl}-1-benzofuran-2-carboxamide], the inhibition at 0.412 µM is 47%.

In the case of `O=C(NO)c1ccc2c(c1)CCCC2NC(=O)C1(c2ccccc2)CCCC1` (centres unmarked) [Compound I-46, N-hydroxy-5-{[(1-phenylcyclopentyl)carbonyl]amino}-5,6,7,8-tetrahydronaphthalene-2-carboxamide], the inhibition at 0.412 µM worked out at 22%.

In the case of `Cc1c(C(=O)NC2CCc3cc(C(=O)NO)ccc3C2)cc(-c2ccccc2)n1CCCN1CCOCC1` (centres unmarked) [Compound I-47, N-{6-[(hydroxyamino)carbonyl]-1,2,3,4-tetrahydronaphthalen-2-yl}-2-methyl-1-(3-morpholin-4-ylpropyl)-5-phenyl-1H-pyrrole-3-carboxamide], the inhibition at 0.412 µM worked out at 82%.

Turning to `Cc1cc(C(=O)NC2CCc3cc(C(=O)NO)ccc3C2)c(C)n1Cc1cccs1` (centres unmarked) [Compound I-48, N-{6-[(hydroxyamino)carbonyl]-1,2,3,4-tetrahydronaphthalen-2-yl}-2,5-dimethyl-1-(2-thienylmethyl)-1H-pyrrole-3-carboxamide], the inhibition at 0.412 µM was determined as 62%.

On to `O=C(NO)c1ccc2c(c1)CCC(NC(=O)C1CCCCC1)C2` (centres unmarked) [Compound I-49, 6-[(cyclohexylcarbonyl)amino]-N-hydroxy-5,6,7,8-tetrahydronaphthalene-2-carboxamide], for which the inhibition at 0.412 µM was found to be 56%.

With `Cc1cc(C(=O)NC2CCc3cc(C(=O)NO)ccc3C2)c(C)o1` (centres unmarked) [Compound I-50, N-{6-[(hydroxyamino)carbonyl]-1,2,3,4-tetrahydronaphthalen-2-yl}-2,5-dimethyl-3-furamide], the inhibition at 0.412 µM stood at 70%.

As for `O=C(NO)c1ccc2c(c1)CCC(NC(=O)c1csc3ccccc13)C2` (centres unmarked) [Compound I-52, N-{6-[(hydroxyamino)carbonyl]-1,2,3,4-tetrahydronaphthalen-2-yl}-1-benzothiophene-3-carboxamide], the inhibition at 0.412 µM amounted to 80%.

In the case of `O=C(NO)c1ccc2c(c1)CCC(NC(=O)c1ccc3occc3c1)C2` (centres unmarked) [Compound I-54, N-{6-[(hydroxyamino)carbonyl]-1,2,3,4-tetrahydronaphthalen-2-yl}-1-benzofuran-5-carboxamide], the inhibition at 0.412 µM was found to be 87%.

Regarding `Cc1nc2ccccn2c1C(=O)NC1CCc2cc(C(=O)NO)ccc2C1` (centres unmarked) [Compound I-55, N-{6-[(hydroxyamino)carbonyl]-1,2,3,4-tetrahydronaphthalen-2-yl}-2-methylimidazo[1,2-a]pyridine-3-carboxamide], the inhibition at 0.412 µM was found to be 78%.

In the case of `O=C(NO)c1ccc2c(c1)CCC(NC(=O)C13CC4CC(CC(C4)C1)C3)C2` (centres unmarked) [Compound I-57, N-{6-[(hydroxyamino)carbonyl]-1,2,3,4-tetrahydronaphthalen-2-yl}adamantane-1-carboxamide], the inhibition at 0.412 µM was determined as 59%.

Regarding `O=C(NO)c1ccc2c(c1)CCC(NC(=O)c1cnn(-c3ccccc3)c1)C2` (centres unmarked) [Compound I-58, N-{6-[(hydroxyamino)carbonyl]-1,2,3,4-tetrahydronaphthalen-2-yl}-1-phenyl-1H-pyrazole-4-carboxamide], the inhibition at 0.412 µM came to 85%.

`Cc1oc(-c2ccccc2)cc1C(=O)NC1CCc2cc(C(=O)NO)ccc2C1` (centres unmarked) [Compound I-59, N-{6-[(hydroxyamino)carbonyl]-1,2,3,4-tetrahydronaphthalen-2-yl}-2-methyl-5-phenyl-3-furamide]: the inhibition at 0.412 µM was 56%.

As to `COc1ccc(C(=O)NC2CCc3cc(C(=O)NO)ccc3C2)cc1` (centres unmarked) [Compound I-61, N-hydroxy-6-[(4-methoxybenzoyl)amino]-5,6,7,8-tetrahydronaphthalene-2-carboxamide], the inhibition at 0.412 µM is 84%.

With `Cn1cccc1C(=O)NC1CCc2cc(C(=O)NO)ccc2C1` (centres unmarked) [Compound I-62, N-(6-(hydroxycarbamoyl)-1,2,3,4-tetrahydronaphthalen-2-yl)-1-methyl-1H-pyrrole-2-carboxamide], the inhibition at 0.412 µM turned out to be 75%.
